From patent US11130801B2, “Method for inhibiting platelet derived growth factor signaling with C3aR or C5aR antibodies” (CASE WESTERN RESERVE UNIVERSITY, priority 2011, dated 2021)

Columns and labels:
T cell = T cell activation in response to anti-CD3/28 stimulation; assay type: cell-based
From the text: (§1) Since some MMPs (MMP-9) is/are constitutively expressed and prothrombin synthesis and secretion might be induced by VEGF-A, prothrombin can cleaved to thrombin by an MMP, e.g., MMP-9 and thrombin, in turn, generates C5a from locally produced C5. The MMP inhibitor alternatively could exert its inhibitory effect on VEGF-A induced EC growth by the pathway that couples C3aR/C5aR signal transduction back to VEGFR2.

ECs = assay: Proliferation of ECs in response to VEGF-A stimulation (thrombin/MMP inhibitors); assay type: cell-based
From the text: as §1

C3aR−/−C5aR−/− ECs = assay: Growth of C3aR-/-C5aR-/- primary ECs; assay type: cell-based, mice; settings: without or with added C5a
HUVEC = assay: Complement mRNA transcripts in HUVEC by qPCR; assay type: cell-based; settings: added C3a or C5a
Protocol: FIG. 33 illustrates charts showing qRT-PCR analysis of C3, factor B and factor D transcripts from HUVEC under hypoxia. A) HUVEC treated with TNF-α, IL-1, and IFN-γ. Blue bars represent samples after treatment. B-C) HUVEC stimulated with C3a (10 ng/ml for 2 hr) or C5a (10 ng/ml for 30 min) Blue bars represent control without C3a/C5a stimulation while red bars represent samples after stimulation. D) HUVEC incubated for 1 hr with FCCP+IAA. Blue bars represent control without hypoxia treatment while yellow bars represent two samples after hypoxia treatment.
We next conversely assessed how transducing C3aR/C5aR signals into ECs affects endogenous EC complement production and whether it is connected with “classical” EC responses. We incubated HUVEC with 1) inflammatory cytokines, 2) the mitochondrial uncoupler protonophore carbonyl cyanide p-(trifluoromethoxy)phenylhydrazone (FCCP)+iodoacetate (IAA) (which mimics hypoxia), or 3) C3a or C5a, after which we assayed complement mRNA transcripts by qPCR. […]
ECs and leukocytes locally synthesize C3/fB/fD/C5 and the elicited C3a/C5a signal through C3aR/C5aR on the same cells to amplify this synthesis. To determine whether ECs locally synthesize AP complement components, we added IL-1/IFN-γ/TNF-α to HUVEC, 1 hr after which we quantified C3 and fB transcripts by qPCR. […]

MS-1 ECs = assay: Growth of MS-1 ECs with VEGF-A or IL-6; assay type: cell-based, murine; settings: IL-6 alone
Protocol: FIG. 27 illustrates plots showing the growth of ECs in response to VEGF induces C3aR/C5aR signaling via an IL-6 and Stat3 dependent mechanism. VEGF-A was added to serum starved MS-1 cells in the absence or presence of anti-IL-6 neutralizing mAb (2 μg/ml) and growth was quantified at 24, […] and 72 hr.
FIG. 28 illustrates plots showing the growth of serum starved MS-1 cells in the absence or presence of C3aR-A/C5aR-A (10 ng/ml each) and IL-6 (10 ng/ml) at 24, 48 and 72 hr.
For studies with bEnd.3 and MS-1 cells, 5×10^4 cells were plated in 24-well plates and allowed to adhere for 24 hr. Following culturing in 0.5% FBS with DMEM for another 24 hours, the cells were treated as described in the FIG. legends. Growth was quantified manually at 24, 48 and 72 hr with trypan blue. At least 95% of cells were viable in all experiments. VEGF-A was used at a concentration of 30 ng/ml, C3a and C5a at 1 ug/ml, and […] at I ug/ml.
Numerous past studies have linked VEGF with both IL-6 and p-Stat3 our prior studies by ourselves has shown that C5a induces IL-6 and that IL-6 signaling is interconnected with C3aR/C5aR signaling. To determine if the linkage between VEGF and C3aR/C5aR signaling in ECs involves IL-6, we incubated MS-1 ECs with 1) VEGF-A alone, IL-6 alone, or VEGF-A plus anti-IL-6 mAb, or with 2) IL-6 alone or IL-6 plus C3aR-A/C5aR-A, and assayed cell growth. […]

Stat3 = Stat3 phosphorylation in serum starved MS-1 cells; assay type: cell-based, murine; settings: growth factor alone
Protocol: FIG. 29 illustrates a chart showing phosphor-Stat3 of serum starved MS-1 cells incubated for 10 min at 37° C. with VEGF-A or IL-6 in the absence or presence of anti-IL-6 mAb or C3aR-A/C5aR-A.
Numerous past studies have linked VEGF with both IL-6 and p-Stat3 our prior studies by ourselves has shown that C5a induces IL-6 and that IL-6 signaling is interconnected with C3aR/C5aR signaling. To determine if the linkage between VEGF and C3aR/C5aR signaling in ECs involves IL-6, we incubated MS-1 ECs with 1) VEGF-A alone, IL-6 alone, or VEGF-A plus anti-IL-6 mAb, or with 2) IL-6 alone or IL-6 plus C3aR-A/C5aR-A, and assayed cell growth. […] The growth induction of ECs of IL-6, like that of VEGF-A, was abolished by C3aR-A/C5aR-A (FIG. 28). Both VEGF-A and IL-6 induced Stat3 phosphorylation and the Stat3 phosphorylation in both cases was abolished by C3aR/C5aR antagonism (FIG. 29). […] These finding thus indicate that VEGF interconnects with C3aR/C5aR signaling via the induction of IL-6 and its activation of Stat3.

NIH-3T3 cells [1] = assay: TGF-β1 production and effect in PDGF-AA treated NIH-3T3 cells; assay type: cell-based
From the text: Antagonizing C3aR/C5aR signal transduction induces the synthesis and activation of TGF-β1. We investigated whether TGF-β1 production might underlie the growth suppression connected with C3aR/C5aR blockade. To test this, 1) we assayed supernatants from NIH-3T3 cells treated with PDGF-AA+anti-C3a/anti-C5a mAbs and 2) following removal of anti-C3a/anti-C5a from the mAb treated NIH-3T3 cell cultures (with protein-G beads), we added supernatants without or with anti-TGF-β1 blocking antibody to fresh cultures of PDGF-AA treated NIH-3T3 cells. […] Activation of latent TGF-β1 can be dependent on Thrombospondin 1 (Tsp-1). […] Collectively, these findings indicate that 1) disruption of C3aR/C5aR signaling evokes TGF-β1 production, 2) TGF-β1 enters into an autocrine signaling loop, and 3) C3aR/C5aR signals and TGF-β1 signals oppose each other in regulating PDGF induced growth.

NIH-3T3 cells [2] = assay: C5a ELISA of NIH-3T3 culture supernatants; assay type: cell-based; settings: PDGF-AA treated cells
Protocol: FIG. 31 illustrates charts showing: (A) C5a (17 ng/mL) added to NIH-3T3 cells. Bars represent 72 hr counts. (B) PDGF-AA was added to NIH-3T3 cells and a 72 hr culture supernatants were assayed for C5a by ELISA.
PDGF contributes to atherogenesis and plays a central role in neointimal proliferation following EC injury. In view of the growth difference of primary cultured Daf1^−/−, WT, C3aR^−/−C5aR^−/−, and C3^−/−C5^−/−SMCs, we examined whether C3aR/C5aR signals are interconnected with PDGF growth induction. For these studies, we utilized NIH-3T3 fibroblasts (which express PDGFR-αα) in conjunction with PDGF-AA. Following determination of optimal PDGF-AA doses, we incubated 1×10^5 cells/well in triplicate with 30 ng/ml of PDGF-AA±10 ng/ml of C3aR and C5aR antagonists (C3aR-A/C5aR-A), 10 ng/ml of anti-C3a/anti-C5a mAbs or respective controls, after which we quantified cell growth by counting cell numbers over time. […] To directly establish whether C5aR signals augment PDGF-AA growth signaling, we 1) quantified the effect of added C5a one growth, and 2) assayed C5a in culture supernatants of PDGF-AA treated cells. […] Because the dependence of PDGF growth induction on C3aR/C5aR signaling could be indirect, i.e., a consequence of its requirement for viability, we performed cell cycle assays.

## NC(N)=NCCC[C@H](NC(=O)[C@@H]1CCCN1C(=O)[C@H](N)Cc1ccccc1)C(=O)CCl [PPACK]
T cell
  T cell activation: virtually abolish
ECs
  proliferation of ECs / VEGF induced EC growth induction: abolish

## Cc1cc(C)c(/C=C2\C(=O)Nc3ccccc32)[nH]1 [SU5416]
C3aR−/−C5aR−/− ECs
  growth of C3aR−/−C5aR−/− ECs: abolished

## ANGIOMAX: thrombin specific inhibitor
T cell
  T cell activation: virtually abolish
ECs
  proliferation of ECs / VEGF induced EC growth induction: abolish

## C3a: complement activation fragment (anaphylatoxin) added to cells
HUVEC
  production of AP components by ECs: more AP components
  transcription of C3: increased

## IL-6: cytokine added to MS-1 cells (10 ng/ml)
MS-1 ECs
  induction of EC growth: comparably to VEGF-A
Stat3
  Stat3 phosphorylation: induced

## PDGF-AA: platelet derived growth factor, 30 ng/ml
NIH-3T3 cells [1]; RT-PCR of PDGF-AA treated cells
  suppression of TGF-β1 mRNA transcription: ~3 fold
NIH-3T3 cells [2]
  C5a generation by NIH-3T3 cells: amplified

## TGF-β1: active TGF-β1 elicited in supernatants of mAb treated NIH-3T3 cells
NIH-3T3 cells [1]; elicited TGF-β1 in transferred supernatants
  suppression of PDGF-AA induced growth: 5 fold
